Test results taken from PubChem BioAssay AID1918957 (Molecular Pharmacology Branch, DTP, NCI, 2023).
Where “and” joins values, the source holds several entries; their conditions need not be identical. Identical values can stand only once.

Tested on: NCI-H1876 complex spheroid viability
Experiment: Anticancer human tumor NCI-H1876 cell line growth inhibition [LSD1];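 also: spheroids exposed to compounds for one week before readout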;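 as to viability, T/C: 100% = DMSO vehicle-treated spheroids so lower means fewer viable cells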
Conditions: for viability, T/C: stronger effect = lower value; active = viability on the fitted dose curve at most 10% of control; inactive = the rest
Excerpt: Multicellular complex tumor spheroid response to LSD1 Inhibitor Iadademstat in combination with a variety of drugs and investigational agents in selected tumor cell lines
The current study was undertaken to assess response to LSD1 inhibitors in combination with standard-of-care drugs and investigational agents in solid tumor complex spheroid models as well as in the K-562 leukemia. Complex spheroids include a stromal component modeled by human endothelial cells (HUVEC) and fibroblasts modeled by human mesenchymal stem cells (MSCs). The concentration ranges selected for each drug and investigational agent were based upon clinically achievable concentrations if the clinical Cmax of the agent was known.
Compounds. The drugs and investigational agents used in this study are listed on Table 1. All of the agents used, including staurosporine (NSC755774) and gemcitabine (NSC613327), were obtained from the Developmental Therapeutics Program, NCI. FDA-approved anticancer drugs are available from the NCI at http://dtp.nci.nih.gov/branches/dscb/oncology_drugset_explanation.html. Drugs and investigational agents were >95% pure by proton nuclear magnetic resonance (NMR) and liquid chromatography/mass spectrometry (LC/MS). Stock solutions were prepared at 400x in DMSO, stored at -70 degrees C, and diluted in fresh medium prior to their use. The final concentration of DMSO in cell culture wells never exceeded 0.25% (v/v). The FDA-approved anticancer drug set is available from the Developmental Therapeutics Program at https://dtp.cancer.gov/organization/dscb/obtaining/available_plates.htm. All drugs and investigational agents were tested over a range starting from a high concentration at or near the clinical Cmax and decreasing in half-log increments. If the clinical Cmax for an agent had not been determined, the highest concentration tested was 10 microM.
Cell Lines. The patient-derived cancer cell (PDC) lines: 292921-168-R-J2-PDC, K24384-001-R-PDC, and 521955-158-R2-J5-PDC pancreatic carcinomas, 556581-035-R-J1 ovarian carcinoma, 324938-238-R-J1-PDC, 855422-203-R-J1-PDC and 883617-216-R-J1-PDC urothelial bladder carcinomas, 743489-274-T-PDC renal cell carcinoma, 138582-R-J1 Merkel cell tumor, K60290-347-R-J1 and K57222-313-R-J1-PDC glioblastomas, 653999-131-R-J2-PDC, LG0703-F948-PDC, and 349418-098-R-PDC non-small cell lung carcinomas, 885512-296-R-J2-PDC, 171881-019-R-J1-PDC breast carcinomas and 186277-243-T-J2-PDC and 233499-124-R-J2-PDC colon carcinomas were obtained from the NCI Patient-Derived Models Repository (PDMR, https://pdmr.cancer.gov). The established cell lines NCI/ADR-RES (RRID:CVCL_14520 and OVCAR-5 (RRID:CVCL_1628) ovarian carcinomas, 786-O (RRID:CVCL_1051) and A498 (RRID:CVCL_A498) renal cell carcinoma, NCI-H211 (ATCC, cat. CRL-5824; RRID:CVCL_1529), NCI-H196 (ATCC, cat. CRL-5823, RRID:CVCL_1509), SW 1271 (ATCC, cat. CRL-2177, RRID:CVCL_1716) and NCI-H1876 (ATCC, cat. CRL-5902, RRID:CVCL_1503) small cell lung carcinomas, MDA-MB-231 (RRID:CVCL_0062) and MDA-MB-468 (RRID:CVCL_0419)breast carcinomas (10-12). Pooled donor human umbilical vein endothelial cells (HUVEC, Lonza, cat. CC-2519) and human mesenchymal stem cells (hMSC, Lonza, cat. PT-2501) were purchased from Lonza (Walkersville, MD).
Cell Culture. All cells were maintained in an incubator at 37 degrees C and 5% CO2 with 95% humidity. The PDC lines were cultured according to standard operating procedures established by the NCI PDMR (https://pdmr.cancer.gov). Briefly all PDCs were thawed and cultured in Matrigel-coated flasks prepared with a working solution of 1X Ham's F-12 nutrient mix, without supplementation (Invitrogen, Waltham, MA, cat. 11765054), 100 U/mL penicillin-streptomycin (Invitrogen, cat. 15140122), and 2.5% Matrigel (Corning Inc., Corning, NY, cat. 354248) for the first three passages. […]

[1] = curve of first compound, second compound 0.1 µM
[2] = curve of first compound, second compound 0.316 µM
[3] = curve of first compound, second compound 1 µM
[4] = curve of first compound, second compound 3.16 µM
[5] = curve of first compound, second compound 10 µM
[6] = second compound 0.1 µM, first compound 0.000316 µM
[7] = second compound 0.1 µM, first compound 0.001 µM
[8] = second compound 0.1 µM, first compound 0.00316 µM
[9] = second compound 0.1 µM, first compound 0.01 µM
[10] = second compound 0.1 µM, first compound 0.0316 µM
[11] = second compound 0.1 µM, first compound 0.1 µM
[12] = second compound 0.316 µM, first compound 0.000316 µM
[13] = second compound 0.316 µM, first compound 0.001 µM
[14] = second compound 0.316 µM, first compound 0.00316 µM
[15] = second compound 0.316 µM, first compound 0.01 µM
[16] = second compound 0.316 µM, first compound 0.0316 µM
[17] = second compound 0.316 µM, first compound 0.1 µM
[18] = second compound 1 µM, first compound 0.000316 µM
[19] = second compound 1 µM, first compound 0.001 µM
[20] = second compound 1 µM, first compound 0.00316 µM
[21] = second compound 1 µM, first compound 0.01 µM
[22] = second compound 1 µM, first compound 0.0316 µM
[23] = second compound 1 µM, first compound 0.1 µM
[24] = second compound 3.16 µM, first compound 0.000316 µM
[25] = second compound 3.16 µM, first compound 0.001 µM
[26] = second compound 3.16 µM, first compound 0.00316 µM
[27] = second compound 3.16 µM, first compound 0.01 µM
[28] = second compound 3.16 µM, first compound 0.0316 µM
[29] = second compound 3.16 µM, first compound 0.1 µM
[30] = second compound 10 µM, first compound 0.000316 µM
[31] = second compound 10 µM, first compound 0.001 µM
[32] = second compound 10 µM, first compound 0.00316 µM
[33] = second compound 10 µM, first compound 0.01 µM
[34] = second compound 10 µM, first compound 0.0316 µM
[35] = second compound 10 µM, first compound 0.1 µM

CC[C@@]1(O)C(=O)OCc2c1cc1n(c2=O)Cc2cc3c(CN(C)C)c(O)ccc3nc2-1 + NC1CC1c1ccc(-c2cccc(O)c2)cc1
active: viability, T/C [9] 10.4% | viability, T/C [10] 6.25% | viability, T/C [11] 4.62% | viability, T/C [15] 9.15% | viability, T/C [16] 6.84% | viability, T/C [17] 4.48% | viability, T/C [21] 9.89% | viability, T/C [22] 6.39% | viability, T/C [23] 4.42% | viability, T/C [27] 10.3% | viability, T/C [28] 7.55% | viability, T/C [29] 4.94% | viability, T/C [34] 8.77% | viability, T/C [35] 6.56%
1.82 nM: IC50 [1]
1.8 nM: IC50 [2]
1.81 nM: IC50 [3]
1.69 nM: IC50 [5]
inactive: viability, T/C [6] 102% | viability, T/C [7] 87.4% | viability, T/C [8] 15.2% | viability, T/C [12] 102% | viability, T/C [13] 86.2% | viability, T/C [14] 15.2% | viability, T/C [18] 104% | viability, T/C [19] 87% | viability, T/C [20] 15.2% | viability, T/C [24] 100% | viability, T/C [25] 81.5% | viability, T/C [26] 15.6% | viability, T/C [30] 97.8% | viability, T/C [31] 76.8% | viability, T/C [32] 17.8% | viability, T/C [33] 15.2%
1.73 nM: IC50 [4]

CCN(c1cc(-c2ccc(CN3CCOCC3)cc2)cc(C(=O)NCc2c(C)cc(C)[nH]c2=O)c1C)C1CCOCC1 + NC1CCC(NC2CC2c2ccccc2)CC1
> 3000 nM: IC50 [1] | IC50 [2] | IC50 [3] | IC50 [4] | IC50 [5]
inactive: viability, T/C (second compound 0.1 µM, first compound 0.00949 µM) 108% | viability, T/C (second compound 0.1 µM, first compound 0.03 µM) 103% | viability, T/C (second compound 0.1 µM, first compound 0.0949 µM) 104% | viability, T/C (second compound 0.1 µM, first compound 0.3 µM) 93.8% | viability, T/C (second compound 0.1 µM, first compound 0.949 µM) 85.3% | viability, T/C (second compound 0.1 µM, first compound 3 µM) 64% | viability, T/C (second compound 0.316 µM, first compound 0.00949 µM) 110% | viability, T/C (second compound 0.316 µM, first compound 0.03 µM) 117% | viability, T/C (second compound 0.316 µM, first compound 0.0949 µM) 102% | viability, T/C (second compound 0.316 µM, first compound 0.3 µM) 93.3% | viability, T/C (second compound 0.316 µM, first compound 0.949 µM) 87.1% | viability, T/C (second compound 0.316 µM, first compound 3 µM) 65.8% | viability, T/C (second compound 1 µM, first compound 0.00949 µM) 104% | viability, T/C (second compound 1 µM, first compound 0.03 µM) 111% | viability, T/C (second compound 1 µM, first compound 0.0949 µM) 102% | viability, T/C (second compound 1 µM, first compound 0.3 µM) 91.3% | viability, T/C (second compound 1 µM, first compound 0.949 µM) 84.9% | viability, T/C (second compound 1 µM, first compound 3 µM) 54.4% | viability, T/C (second compound 3.16 µM, first compound 0.00949 µM) 99.8% | viability, T/C (second compound 3.16 µM, first compound 0.03 µM) 109% | viability, T/C (second compound 3.16 µM, first compound 0.0949 µM) 106% | viability, T/C (second compound 3.16 µM, first compound 0.3 µM) 108% | viability, T/C (second compound 3.16 µM, first compound 0.949 µM) 86.3% | viability, T/C (second compound 3.16 µM, first compound 3 µM) 56.3% | viability, T/C (second compound 10 µM, first compound 0.00949 µM) 115% | viability, T/C (second compound 10 µM, first compound 0.03 µM) 106% | viability, T/C (second compound 10 µM, first compound 0.0949 µM) 97.4% | viability, T/C (second compound 10 µM, first compound 0.3 µM) 97.6% | viability, T/C (second compound 10 µM, first compound 0.949 µM) 79% | viability, T/C (second compound 10 µM, first compound 3 µM) 56.8%

CC(C)CC(NC(=O)C(Cc1ccccc1)NC(=O)c1cnccn1)B(O)O (configuration not stated) + NC1CCC(NC2CC2c2ccccc2)CC1
active: viability, T/C [25] 0.39% | viability, T/C [26] 9.3% | viability, T/C [27] 3.65% | viability, T/C [28] 0.15% | viability, T/C [29] 10.3% | viability, T/C [31] 9.39% | viability, T/C [32] 7.81% | viability, T/C [33] 7.31% | viability, T/C [34] 3.77% | viability, T/C [35] 12.5%
inactive: viability, T/C [6] 92.6% | viability, T/C [7] 16.3% | viability, T/C [8] 31.7% | viability, T/C [9] 14.5% | viability, T/C [10] 0.17% | viability, T/C [11] 3.63% | viability, T/C [12] 89.3% | viability, T/C [13] 9.55% | viability, T/C [14] 13.6% | viability, T/C [15] 17.3% | viability, T/C [16] 10.1% | viability, T/C [17] 3.61% | viability, T/C [18] 82% | viability, T/C [19] 16.4% | viability, T/C [20] 13.8% | viability, T/C [21] 13.1% | viability, T/C [22] 7.48% | viability, T/C [23] 11.4% | viability, T/C [24] 70% | viability, T/C [30] 74%
0.602 nM: IC50 [1]
0.449 nM: IC50 [4]
0.555 nM: IC50 [3]
0.485 nM: IC50 [5]
0.563 nM: IC50 [2]

O=C(C=Cc1cccc(S(=O)(=O)Nc2ccccc2)c1)NO
176 nM and 156 nM: IC50 (curve of compound)
active: viability, T/C (compound 0.949 µM) 9.32% and 8.04% | viability, T/C (compound 3 µM) 2.33% and 0.42%
inactive: viability, T/C (compound 0.00949 µM) 101% and 104% | viability, T/C (compound 0.03 µM) 98.9% and 104% | viability, T/C (compound 0.0949 µM) 75.1% and 73.1% | viability, T/C (compound 0.3 µM) 27.6% and 19.1%
